Data reported in patent US20070197632A1, “Aminocyclohexyl ether compounds and uses thereof” (Cardiome Pharma Corp, priority 2003, published 2007).
Counter-ions that a name gives are not always drawn. Like-named read-outs stand apart in the source and are kept apart here.

Tests used:
conscious rats [1] = details: rat, in vivo, iv
[2] = system: sustained AF maintained during continuous vagal nerve stimulation; experiment: Canine vagal-AF model; type: in vivo, dog; details: anesthetized dogs, IV
Protocol: St.-Georges et al., 1997). Dogs are ventilated mechanically with room air supplemented with oxygen via an endotracheal tube at 20 to 25 breaths/minute with a tidal volume obtained from a nomogram. […] Catheters are inserted into the femoral artery for blood pressure recording and blood gas measurement, and into both femoral veins for drug administration and venous sampling. […] Body temperature is maintained at 37-40° C. with a heating blanket. The heart is exposed via a medial thoracotomy and a pericardial cradle is created. […] Drug effects to terminate sustained AF maintained during continuous vagal nerve stimulation are assessed. […] The vagal stimulation voltage is adjusted under control conditions, and then readjusted after each treatment to maintain the same bradycardic effect. […] Diastolic threshold and ERP are determined in duplicate and averaged to give a single value. […] The interval between the stimulus artefact and the peak of the local electrogram is measured as an index of conduction velocity. […] The stimulus voltage-heart rate relationship for vagal nerve stimulation is determined under control conditions in most experiments. […] After the termination of AF, the diastolic threshold and ERP of the atrium and ventricle are determined. […] Group data are expressed as the mean±SEM. […]

conscious rats [3] = experiment: Determination of CNS toxicity: convulsions in conscious rats under intravenous infusion; details: Table 5, comparative example compounds; for convulsion dose: minimum iv infusion rate at which partial or complete convulsions are observed; for cum conv dose: total amount of drug infused when convulsions are first observed

## COc1ccc(CCO[C@H]2CCCCC2N2CC[C@@H](O)C2)cc1OC.Cl (stereo partly drawn) [Compound 4, (1R,2R)/(1S,2S)-2-[(3R)-Hydroxypyrrolidinyl]-1-(3,4-dimethoxyphenethoxy)-cyclohexane monohydrochloride]
Conscious rats [1]
  convulsion dose: 64 µmol/kg/min

## COc1ccc(CCO[C@@H]2CCCC[C@H]2N2CC[C@H](O)C2)cc1OC.Cl [Compound 6, (1R,2R)-2-[(3S)-Hydroxypyrrolidinyl]-1-(3,4-dimethoxyphenethoxy)-cyclohexane monohydrochloride]
Conscious rats [1]
  convulsion dose: 64 µmol/kg/min

## O=C(NCC1CCCCN1)c1cc(OCC(F)(F)F)ccc1OCC(F)(F)F (stereo not shown) [Flecainide]
[2]
  Median dose required for termination of AF: 2.5 µmol/kg
[2]; mean±SEM
  Mean dose required for termination of AF: 4 ± 2 µmol/kg

## COc1ccc(CCO[C@H]2CCCCC2N2CC[C@H](O)C2)cc1OC.Cl (stereo partly drawn) [Compound 5, (1R,2R)/(1S,2S)-2-[(3s)-Hydroxypyrrolidinyl]-1-(3,4-dimethoxyphenethoxy)-cyclohexane monohydrochloride]
Conscious rats [1]
  convulsion dose: 64 µmol/kg/min

## Cl.OC1CCN(C2CCCC[C@@H]2OCCc2cccc3ccccc23)C1 (stereo partly drawn) [Comparative Example Compound 26, (3R)/(3S)-1-{(1R,2R)/(1S,2S)-2-[2-(1-naphthyl)ethoxy]-cyclohexyl}-pyrrolidin-3-ol hydrochloride]
Conscious rats [3]
  convulsion dose: 8 µmol/kg/min

## Brc1ccc(OCCO[C@H]2CCCCC2N2CCOCC2)cc1 (stereo partly drawn) [Comparative Example Compound 34, (1R,2R)/(1S,2S)-[2-(4-morpholinyl)-1-[2-(4-bromophenoxy)-ethoxy]]cyclohexane]
Conscious rats [3]
  cum conv dose: 83 µmol/kg

## COc1ccc(CCO[C@H]2CCCCC2N2CCCC2)cc1OC (stereo partly shown) [Comparative Example Compound 17, monohydrochloride]
Conscious rats [3]
  convulsion dose: 21.33 µmol/kg/min
  cum conv dose: 118 µmol/kg

## Clc1ccc(CCO[C@H]2CCCCC2N2CCOCC2)cc1Cl (stereo partly drawn) [Comparative Example Compound 40, (1R,2R)/(1S,2S)-2-(4-morpholinyl)-1-(3,4-dichlorophenethoxy)cyclo-hexane]
Conscious rats [3]
  convulsion dose: 16 µmol/kg/min

## c1ccc2c(CCO[C@H]3CCCCC3N3CCOCC3)cccc2c1 (stereo partly drawn) [Comparative Example Compound 31, (1R,2R)/(1S,2S)-[2-(4-morpholinyl)-1-(1-naphthenethoxy)]-cyclohexane]
Conscious rats [3]
  convulsion dose: 16 µmol/kg/min
  cum conv dose: 93 µmol/kg

## COc1ccc(CCO[C@H]2CCCC[C@@H]2N2CC[C@@H](O)C2)cc1OC.Cl [Compound 2, (1S,2S)-2-[(3R)-Hydroxypyrrolidinyl]-1-(3,4-dimethoxyphenethoxy)-cyclohexane monohydrochloride]
Conscious rats [1]
  convulsion dose: 64 µmol/kg/min

## c1ccc2cc(CCO[C@H]3CCCCC3N3CCOCC3)ccc2c1 (stereo partly drawn) [Comparative Example Compound 30, (1R,2R)/(1S,2S)-[2-(4-morpholinyl)-1-(2-naphihenethoxy)]-cyclohexane monohydrochloride]
Conscious rats [3]
  cum conv dose: 85 µmol/kg

## COc1ccc(CCOC2CCCC[C@H]2N2CCOCC2)cc1OC (stereo partly shown) [Comparative Example Compound 9, hydrochloride]
Conscious rats [3]
  convulsion dose: 16 µmol/kg/min
  cum conv dose: 113 µmol/kg

## COc1ccc(CCO[C@H]2CCCC[C@@H]2N2CC[C@H](O)C2)cc1OC.Cl [Compound 7, (1S,2S)-2-[(3S)-Hydroxypyrrolidinyl]-1-(3,4-dimethoxyphenethoxy)-cyclohexane monohydrochloride]
Conscious rats [1]
  convulsion dose: 64 µmol/kg/min

## COc1ccc(CCOC2CCCC[C@H]2N2CCC(=O)C2)cc1OC.Cl (stereo partly drawn) [Comparative Example Compound 18, 1-{(1R,2R)/(1S,2S)-2-[2-(3,4-dimethoxyphenyl)-ethoxy]cyclohexyl}-pyrrolidin-3-one hydrochloride]
Conscious rats [3]
  convulsion dose: 32 µmol/kg/min

## Brc1ccccc1CCO[C@H]1CCCCC1N1CCOCC1 (stereo partly drawn) [Comparative Example Compound 39, (1R,2R)/(1S,2S)-[2-(4-morpholinyl)-1-(2-bromophenethoxy)]-cyclohexane]
Conscious rats [3]
  convulsion dose: 16 µmol/kg/min

## COc1ccc(CCO[C@H]2CCCCC2N2CCC3(C2)OCCO3)cc1OC (stereo partly shown) [Comparative Example Compound 10, monohydrochloride]
Conscious rats [3]
  convulsion dose: 16 µmol/kg/min
  cum conv dose: 91.33 µmol/kg

## COc1ccc(CCO[C@H]2CCCCC2N2CCC(O)C2)cc1OC (stereo partly drawn) [Compound 3, (1R,2R)/(1S,2S)-2-[(3R)/(3S)-Hydroxypyrrolidinyl]-1-(3,4-dimethoxyphenethoxy)-cyclohexane monohydrochloride]
Conscious rats [1]
  convulsion dose: 64 µmol/kg/min

## Cl.Clc1cccc(Cl)c1COC1CCCC[C@H]1N1CCOCC1 (stereo partly drawn) [Comparative Example Compound 44, (1R,2R)/(1S,2S)-2-(4-morpholinyl)-1-[(2,6-dichlorophenyl)methoxy]-cyclohexane monohydrochloride]
Conscious rats [3]
  convulsion dose: 16 µmol/kg/min
  cum conv dose: 97 µmol/kg

## Cl.OC1CCN([C@@H]2CCCC[C@@H]2OCCc2cccc3ccccc23)C1 (stereo partly drawn) [Comparative Example Compound 25, (3R)/(3S)-1-{(1R,2S)/(1S,2R)-2-[2-(1-naphthyl)ethoxy]-cyclohexyl}-pyrrolidin-3-ol hydrochloride]
Conscious rats [3]
  convulsion dose: 16 µmol/kg/min
  cum conv dose: 70 µmol/kg

## Cl.O=C1CCN([C@@H]2CCCCC2OCc2c(Cl)cccc2Cl)C1 (stereo partly drawn) [Comparative Example Compound 45, (1R,2R)/(1S,2S)-2-(3-ketopyrrolidinyl)-1-[(2,6-dichlorophenyl)methoxy]-cyclohexane monohydrochloride]
Conscious rats [3]
  convulsion dose: 32 µmol/kg/min

## c1ccc2cc(OCCO[C@H]3CCCCC3N3CCOCC3)ccc2c1 (stereo partly drawn) [Comparative Example Compound 33, (1R,2R)/(1S,2S)-[2-(4-morpholinyl)-1-[2-(2-naphthoxy)ethoxy]]-cyclohexane]
Conscious rats [3]
  convulsion dose: 8 µmol/kg/min

## Cl.O=C1CCN(C2CCCC[C@@H]2OCC(c2ccccc2)c2ccccc2)C1 (stereo partly drawn) [Comparative Example Compound 47, (1R,2R)/(1S,2S)-2-(3-ketopyrrolidinyl)-1-(2,2-diphenylethoxy)cyclo-hexane monohydrochloride]
Conscious rats [3]
  convulsion dose: 21 µmol/kg/min

## Cl.Clc1cccc(Cl)c1CCO[C@@H]1CCCC[C@H]1N1CCSC1 [Comparative Example Compound 48, (1R,2R)/(1S,2S)-2-(3-thiazolidinyl)-1-(2,6-dichlorophenethoxy)cyclo-hexane monohydrochloride]
Conscious rats [3]
  convulsion dose: 8 µmol/kg/min
  cum conv dose: 44.4 µmol/kg
